Drawing on patent EP3325465B1, “PESTICIDALLY ACTIVE PYRAZOLE DERIVATIVES” (Syngenta Participations AG, priority 2015, dated 2017), this text covers mortality and pest or weed control for six molecules.

Assay type in all cases: in vivo
Assay [1] relates to Thrips tabaci (Onion thrips). Put plainly: Biological comparison b): insecticidal activity against Thrips tabaci, sunflower leaf discs. The following applies: foliar, 144 h. As to the method:
b) Insecticidal activity against Thrips tabaci (Onion thrips): Sunflower leaf discs were placed on agar in 24-well microtiter plates and sprayed with aqueous test solutions prepared from 10'000 ppm DMSO stock solutions. After drying the leaf discs were infested with a thrips population of mixed ages. The samples were assessed for mortality 6 days after infestation.

In assay [2] the test system is Spodoptera littoralis (Egyptian cotton leaf worm). Kind of assay: Spodoptera littoralis cotton leaf disc spray test, L1 larvae. Particulars: foliar, 72 h. The method, boiled down:
(§1)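 Leaf discs on agar sprayed with aqueous dilutions of 10'000 ppm DMSO stocks, then infested after drying: Myzus persicae (sunflower, 200 ppm, mixed ages), mortality at 6 DAT; Thrips tabaci (sunflower, mixed ages), mortality at 6 days; Tetranychus urticae (bean, mixed ages), mobile-stage mortality at 8 days; Spodoptera littoralis (cotton), five L1 larvae per disc.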

Assay [3] relates to Plutella xylostella (Diamond back moth). Put plainly: Plutella xylostella artificial diet test, L2 larvae. Particulars: 120 h, application rate of 200 ppm, mortality and growth inhibition 5 days after infestation. The method, boiled down:
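Artificial diet in 24-well microtiter plates was treated by pipetting with aqueous test solutions made from 10'000 ppm DMSO stock solutions. Once dry, each well received 10 to 15 second-instar (L2) Plutella xylostella larvae. Mortality and growth inhibition were scored against untreated samples 5 days after infestation.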

Assay [4] concerns Diabrotica balteata, (Corn root worm). Put plainly: Diabrotica balteata maize sprout spray test, L2 larvae. The following applies: 96 h. In outline:
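Test solutions in water, made from DMSO stock solutions at 10'000 ppm, were sprayed onto maize sprouts resting on an agar layer in 24-well microtiter plates. Once the treated sprouts had dried, each well was infested with 6 to 10 second-instar (L2) Diabrotica balteata corn rootworm larvae, and mortality was then scored as percent.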

Assay [5] has as its system Thrips tabaci (Onion thrips). Put plainly: Thrips tabaci sunflower leaf disc spray test. The following applies: foliar, 144 h, application rate of 200 ppm, mortality 6 days after infestation, mixed ages. In outline:
as §1

Assay [6] relates to Tetranychus urticae (Two-spotted spider mite). Put plainly: Tetranychus urticae bean leaf disc spray test. The following applies: foliar, 192 h, application rate of 200 ppm, mortality on mixed population (mobile stages) 8 days after infestation. In outline: as §1
The subject of assay [7] is Euschistus heros (Neotropical Brown Stink Bug). Kind of assay: Euschistus heros soybean plant spray test, N2 nymphs. Particulars: 120 h, read-out: mortality of Euschistus heros. From the text: (§2) The pesticidal/insecticidal properties of the compounds according to embodiments 1 or 2 can be illustrated via the following tests: Spodoptera littoralis (Egyptian cotton leaf worm) • Cotton leaf discs were placed onto agar in 24-well microtiter plates and sprayed with aqueous test solutions prepared from 10'000 ppm DMSO stock solutions. After drying the leaf discs were infested with five L1 larvae. […] Plutella xylostella (Diamond back moth): 24-well microtiter plates with artificial diet were treated with aqueous test solutions prepared from 10'000 ppm DMSO stock solutions by pipetting. After drying, the plates were infested with L2 larvae (10 to 15 per well). The samples were assessed for mortality and growth inhibition in comparison to untreated samples 5 days after infestation. […] Diabrotica balteata, (Corn root worm) • Maize sprouts placed onto an agar layer in 24-well microtiter plates were treated with aqueous test solutions prepared from 10'000 ppm DMSO stock solutions by spraying. After drying, the plates were infested with L2 larvae (6 to 10 per well). […] Thrips tabaci (Onion thrips): Sunflower leaf discs were placed on agar in 24-well microtiter plates and sprayed with aqueous test solutions prepared from 10'000 ppm DMSO stock solutions. After drying the leaf discs were infested with a thrips population of mixed ages. The samples were assessed for mortality 6 days after infestation. […] Tetranychus urticae (Two-spotted spider mite): Bean leaf discs on agar in 24-well microtiter plates were sprayed with aqueous test solutions prepared from 10'000 ppm DMSO stock solutions. After drying the leaf discs were infested with a mite population of mixed ages. The samples were assessed for mortality on mixed population (mobile stages) 8 days after infestation. […] Euschistus heros (Neotropical Brown Stink Bug): • Two weeks old soybean plants were sprayed in a turn table spray chamber with the diluted spray solutions. After drying 2 soybean seeds were added and plants were infested with 10 N2 nymphs of the neotropical brown stink bug Euschistus heros in plastic test boxes. The samples were assessed for mortality in comparison to untreated samples 5 days after infestation. • The following compounds gave at least 80% mortality of Euschistus heros at an application rate of 12.5 ppm: Compounds 3 , 4 , 8 , 39 , 43 , 44 , 46 , 75 , 76 , 77 , 78 , 79 , 80 , 81 , 82 , 88 , 90 , 93 and 95 . Myzus persicae (Green peach aphid): Sunflower leaf discs were placed on agar in a 24-well microtiter plate and sprayed with test solutions at an application rate of 200 ppm. After drying, the leaf discs were infested with an aphid population of mixed ages. After an incubation period of 6 DAT, samples were checked for mortality. The following compounds gave at least 50% mortality of Myzus persicae: Compounds 3 , 4 , 8 , 43 , 44 , 75 , 76 , 77 , 80 , 81 , 90 and 92 . Myzus persicae (Green peach aphid): • Test compounds were applied by pipette into 24 well plates and mixed with Sucrose solution. Application rate: 12.5ppm. The plates were closed with a stretched parafilm. A plastic stencil with 24 holes is placed onto the plate and infested pea seedlings were placed directly on the Parafilm. The infested plate is closed with a gel blotting paper and another plastic stencil and then turned upside down. […]

In assay [8] the test system is Myzus persicae (Green peach aphid). Put plainly: Myzus persicae sunflower leaf disc spray test. Particulars: foliar, 144 h, read-out: mortality of Myzus persicae.
Description: as §2

Assay [9] has the same test system. Put plainly: Myzus persicae sucrose solution / Parafilm feeding test. Particulars: 120 h, read-out: mortality of Myzus persicae.
Description: as §2

The test system of assay [10] is Diabrotica balteata (Corn root worm). Put plainly: Biological comparison a): insecticidal activity against Diabrotica balteata, maize sprouts. Particulars: 96 h, 4 days after infestation.
Description: as §2

Where [11] appears, read: application rate of 200 ppm, 3 days after infestation, L1 larvae, read-out: mortality.
Setting [12] is: application rate of 200 ppm, 4 days after infestation, L2 larvae, read-out: mortality.
Where [13] appears, read: application rate of 12.5 ppm, 5 days after infestation, N2 nymphs.
Setting [14] is: application rate of 200 ppm, leaf disc spray, 6 DAT.
Where [15] appears, read: Application rate: 12.5ppm, sucrose solution, 5 days after infestation.

Where two headings read alike, the source gives them in different places.

As a reminder, the mortality is the percentage killed. Take `Cn1nc(C(F)(F)C(F)(F)F)c(C(F)(F)F)c1-n1cc(-c2ccc(Cl)c(C(=O)NC3(C#N)CC3)c2)cn1` [B, reference compound]: in assay [1], the mortality at 0.781 ppm is 0%, the mortality at 3.12 ppm was 25%, the mortality at 12.5 ppm was 90% and the mortality at 50 ppm worked out at 100%. Further, in assay [1], the mortality at 200 ppm stood at 100%.

For orientation: pest or weed control means the degree to which the test organism was suppressed or injured, in per cent. Low values mean weak suppression, high ones strong suppression. With `Cn1nc(C(F)(F)C(F)(F)F)c(C(F)(F)F)c1-c1cc(-c2ccc(Cl)c(C(=O)NC3(C#N)CC3)c2)no1` [Compound 3, 2-chloro-N-(1-cyanocyclopropyl)-5-[5-[2-methyl-5-(1,1,2,2,2-pentafluoroethyl)-4-(trifluoromethyl)pyrazol-3-yl]isoxazol-3-yl]benzamide], the mortality at 200 ppm in [2] was ≥ 80%; in assay [4], ≥ 80%; in [8], ≥ 50%. For the same molecule, the pest or weed control at 200 ppm in [3], in [5] and in assay [6] was ≥ 80% in each case. Besides, the results for the mortality at 12.5 ppm in [7] and in [9] were ≥ 80% and ≥ 50%, respectively.

Take `Cn1nc(C(F)(F)C(F)(F)F)c(C(F)(F)F)c1-c1cc(-c2ccc(Cl)c(C(=O)NC3(C#N)CC3)c2)on1` [Compound 4, 2-chloro-N-(1-cyanocyclopropyl)-5-[3-[2-methyl-5-(1,1,2,2,2-pentafluoroethyl)-4-(trifluoromethyl)pyrazol-3-yl]isoxazol-5-yl]benzamide]: the mortality at 200 ppm in assay [2] (setting [11]) is ≥ 80%; in assay [4] (setting [12]) it was ≥ 80%; in assay [8] (setting [14]), ≥ 50%; in assay [1] (Concentration 200 ppm, 6 days after infestation, read-out: Mortality (%)), 100%. The pest or weed control at 200 ppm in assay [3], in assay [5] and in [6] was ≥ 80% in each case. In addition, the mortality at 12.5 ppm is ≥ 80% in assay [7] (setting [13]); ≥ 80% in [9] (setting [15]); 100% in assay [10] (Concentration 12.5 ppm); 80% in assay [1] (Concentration 12.5 ppm, 6 days after infestation, read-out: Mortality (%)). The mortality at 0.195 ppm in [10] (Concentration 0.195 ppm) was 100%. Besides, the mortality at 0.781 ppm was found to be 100% in assay [10] (Concentration 0.781 ppm) and 50% in assay [1] (Concentration 0.781 ppm, 6 days after infestation, read-out: Mortality (%)). In addition, the mortality at 3.12 ppm in assay [10] (Concentration 3.12 ppm) stood at 100%; in assay [1] (Concentration 3.12 ppm, 6 days after infestation, read-out: Mortality (%)) it was 65%. Moreover, the mortality at 50 ppm in assay [10] (Concentration 50 ppm) stood at 100%; in [1] (Concentration 50 ppm, 6 days after infestation, read-out: Mortality (%)) it was 100%.

`Cn1nc(C(F)(F)C(F)(F)F)c(C(F)(F)F)c1-c1cc(-c2ccc(Cl)c(C(=O)NC3CC3)c2)sn1` [Compound 43, 2-chloro-N-cyclopropyl-5-[3-[2-methyl-5-(1,1,2,2,2-pentafluoroethyl)-4-(trifluoromethyl)pyrazol-3-yl]isothiazol-5-yl]benzamide]: the mortality at 200 ppm was ≥ 80% in assay [2] (setting [11]), ≥ 80% in [4] (setting [12]) and ≥ 50% in [8] (setting [14]). Also, the pest or weed control at 200 ppm in [3], in assay [5] and in assay [6] was ≥ 80% in each case. Further, the mortality at 12.5 ppm in assay [7] (setting [13]) and in assay [9] (setting [15]) was ≥ 80% throughout.

In the case of `Cn1nc(C(F)(F)C(F)(F)F)c(C(F)(F)F)c1-c1cc(-c2ccc(Cl)c(C(=O)NC3(C(N)=S)CC3)c2)on1` [Compound 76, N-(1-carbamothioylcyclopropyl)-2-chloro-5-[3-[2-methyl-5-(1,1,2,2,2-pentafluoroethyl)-4-(trifluoromethyl)pyrazol-3-yl]isoxazol-5-yl]benzamide], the mortality at 200 ppm in [2] (setting [11]) was ≥ 80%; in assay [4] (setting [12]), ≥ 80%; in [8] (setting [14]), ≥ 50%. Also, the pest or weed control at 200 ppm in assay [3], in [5] and in assay [6] was ≥ 80% each time. For the same molecule, the mortality at 12.5 ppm in assay [7] (setting [13]) and in [9] (setting [15]) was ≥ 80% in each case.

With `Cn1nc(C(F)(F)C(F)(F)F)c(C(F)(F)F)c1-c1cc(-c2ccc(Cl)c(C(=O)NC3CC3F)c2)on1` (stereo not shown) [Compound 81, 2-chloro-N-(2-fluorocyclopropyl)-5-[3-[2-methyl-5-(1,1,2,2,2-pentafluoroethyl)-4-(trifluoromethyl)pyrazol-3-yl]isoxazol-5-yl]benzamide], the mortality at 200 ppm in assay [2] (setting [11]) is ≥ 80%; in assay [4] (setting [12]) it was ≥ 80%; in assay [8] (setting [14]) it was ≥ 50%. In addition, the pest or weed control at 200 ppm in [3], in assay [5] and in assay [6] was ≥ 80% throughout. The mortality at 12.5 ppm in assay [7] (setting [13]) and in assay [9] (setting [15]) was ≥ 80% in each case.
